Data: publication PMC9804781, “Identification of a Novel Pseudo‐Natural Product Type IV IDO1 Inhibitor Chemotype” (Angewandte Chemie (International Ed. in English), 2022)

Key:
[1] = system: L-Trp uptake in BxPC-3 cells; assay: Trp uptake assay in BxPC-3 cells (HPLC-MS/MS); assay type: cell-based; conditions: BxPC-3 starved for L-Trp 72 h, ±IFN-γ; 5 mM L-Leu, 1 mM 1-MT, 5 µM compound
Experimental: GraphPad Prism 9.0 (GraphPad Software, Inc, US) to generate dose-response curves and obtain […]
IDO1 promoter reporter gene assay
HEK293T cells (25,000 cells/well) were reverse-transfected with pXPG-IDO1[16] (4 µg/96-well plate, kindly provided by Gina M. Doody, Leeds, UK) and pRL-TK (300 ng/96-well plate, Promega, US) using Lipofectamine™ 2000 (Invitrogen, USA) pri or to incubation for 24 h. Afterwards, cells were treated with 50 ng/mL IFN-γ and the compounds for 48 h. Luminescence generated by the Fluc reporter and the control reporter Rluc was measured using the Dual-Glo ® Luciferase Assay System (Promega, US) on the Spark® Multimode Microplate Reader (Tecan, AT). To determine the IDO1 promoter activity, Fluc signals were divided by Rluc signals and normalized to the values of the DMSO control. Data analysis was performed using a non-linear regression curve fit and […]
BxPC-3 cells (30,000 cells/well) were seeded in 96-well plates in Trp-free RPMI 1640 medium and incubated for 48 h prior addition of 50 ng/mL IFN-γ. Trp starvation was continued for another 24 h. Afterwards, medium was exchanged for Trp-free medium containing the control inhibitors 5 mM L-Leu (inhibitor of system-L amino acid transporters (LAT)), 1 mM 1-methyl-L-tryptophan (inhibitor of tryptophanyl-tRNA synthetase (TrpRS)) and compounds and cells were incubated for 30 min. Subsequently, 50 µM L-Trp was added and samples were incubated for another 30 min.
The supernatant was transferred to a new plate, trichloroacetic acid was added to a final concentration of 7% (v/v) and plates were incubated for 15 min at room temperature. Samples were centrifuged for 10 min at 1800 x g and L-Trp was quantified by HPLC-MS/MS using the LTQ Velos Pro and Dionex HPLC (Thermo Fisher Scientific, US). Data analysis was performed with Xcalibur™ (Thermo Fisher Scientific, US) and repres ented using GraphPad Prism 9.0 (GraphPad […]
RNA purification and RT-qPCR
HeLa cells (250,000 cells/well) were seeded in 6-well plates and incubated for 24 h prior addition of 50 ng/mL IFN-γ and compounds. […]

rhIDO1 (holo-IDO1) = biological target: T1, rhIDO1 (holo-IDO1) (Homo sapiens, UniProt P14902); assay: UV/Vis spectrophotometry of the Soret peak (heme loss); assay type: binding; conditions: holo-IDO1, 2 h at 37 °C
T1 construct: His; made in house; host or cells: E. coli
Experimental: using the ChemiDoc MP Imaging System (Bio-Rad Laboratories, DE). IDO1 protein levels were normalized to the levels of reference protein vinculin.
BxPC-3 cells (10,000 cells/well) were seeded in 96-well plates and incubated for 24 h prior to addition of 50 ng/mL IFN-γ and compounds at indicated concentrations for 48 h. Cells were fixed with 4% paraformaldehyde for 20 min at room temperature followed by permeabilization with 0.5% Triton X-100 for 15 min at room temperature. Afterwards, unspecific binding sites were blocked with 5% non-fat milk in PBS with 0.1% (v/v) Tween-20 (PBS-T) for 60 min at room temperature followed by overnight incubation at 4°C with the primary antibodies. […]
11 µM rhIDO1 was incubated with compounds at indicated concentrations for 60 min at 37°C in 50 mM potassium phosphate buffer (16.9 mM K2HPO4, 33.1 mM, KH2PO4, pH 6.5). The thermal protein stability from 20°C to 90°C (1°C/min) was measured by means of the intrinsic tryptophan/tyrosine fluorescence using the Prometheus™ NT.48 (NanoTemper® Technologies, DE). Melting scans, first derivatives of melting scans and melting temperatures were analyzed using PR.ThermControl software (NanoTemper® Technologies, DE). […]
transparent microplates (UV-STAR®, Greiner AG, AT). Subsequently, absorbance spectra from 250 nm to 550 nm were recorded on the Spark® Multimode Microplate Reader (Tecan, AT). […]

IDO1 = IDO1 (Homo sapiens, UniProt P14902); assay: In-Cell CETSA for IDO1 in SKOV-3 cells; assay type: cell-based; set-up: endogenous in cells; host or cells: SKOV-3 (IFN-γ induced); conditions: 15 min
Chain of IDO1 (P14902 whole entry): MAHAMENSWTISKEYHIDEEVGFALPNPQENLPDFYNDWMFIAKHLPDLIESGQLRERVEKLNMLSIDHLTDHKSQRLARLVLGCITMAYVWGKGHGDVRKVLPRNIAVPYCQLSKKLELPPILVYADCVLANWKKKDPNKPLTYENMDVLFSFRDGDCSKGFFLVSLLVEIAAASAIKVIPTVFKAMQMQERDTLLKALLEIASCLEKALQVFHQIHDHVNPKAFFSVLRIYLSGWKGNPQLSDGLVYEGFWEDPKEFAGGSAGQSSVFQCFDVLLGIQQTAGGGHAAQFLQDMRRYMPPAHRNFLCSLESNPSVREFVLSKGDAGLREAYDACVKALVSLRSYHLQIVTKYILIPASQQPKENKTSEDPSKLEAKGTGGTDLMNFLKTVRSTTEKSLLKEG
Experimental: SKOV-3 cells (1.25 x 10^6 cells/flask) were seeded in two T75 tissue culture flasks and incubated for 24 h prior to addition of 17.6 ng/mL IFN-γ and 10 µM succinylacetone (SA, heme synthesis inhibitor). After 24 h, cells were treated with the compound (C) or DMSO (V, vehicle) for 15 min at 37°C. Cells were detached with trypsin/EDTA and washed thrice in cold PBS after resuspension in cold PBS. C- and V-treated samples were distributed equally into ten tubes each and subjected to heating at different temperatures in the MasterCycler EpGradient S (Eppendorf SE, DE). Afterwards, NP-40 alternative was added to a final concentration of 0.4% (v/v) and cells were lysed by five consecutive freeze/thaw cycles. Soluble fractions were separated from denatured proteins by centrifugation at 100,000 x g and 4°C for 20 min. Supernatants were transferred to new tubes and subjected to immunoblot analysis.

T1 sequence (P14902 whole entry): as above

effect on Soret peak at 404 nm (heme loss) (rhIDO1 (holo-IDO1)): reduced the Soret peak
CETSA shift in Tm of IDO1 (result in words) (IDO1; IFN-γ 24 h, 50 μM, no succinylacetone): did not lead to a shift
ΔTm at 30 µM (IDO1; SK-OV-3, IFN-γ and 10 μM succinylacetone 24 h, 30 μM, read-out: CETSA ΔTm of apo-IDO1): 7.9 ± 0.6 °C
Compound: CCOC(=O)C1=CC[C@](C(=O)OC)(c2cc3ccccc3n2C)N(S(=O)(=O)c2ccc(C)cc2)[C@@H]1C(=O)OC(C)(C)C [Compound 3d]
uptake (import) of L-Trp [1]: does not interfere
